The results in this text go back to patent US10342766B2, “6-shogaol derivatives and activities thereof” (North Carolina Agricultural and Technical State University, priority 2017, dated 2019).

As a reminder, the IC50 is the concentration needed to halve the response being measured. A lower IC50 goes with greater potency in that assay.

One data set concerns Nrf2. Put plainly: Nrf2 reporter activity by Tg(gstp1:GFP) fluorescence in transgenic zebrafish embryos. In kind it is in vivo. Particulars: 5 μM, 24-hour treatment from 1 dpf to 2 dpf; olfactory epithelia; relative to vehicle (DMSO = 1.00). Here is the method:
Zebrafish AB transgenic strains Tg(gstp1:GFP) were maintained in a Pentair Aquatic Ecosystem (Apopka, Fla., United States of America) fish housing unit with 14 h light/10 h dark cycle (see Tsujita, T., Li, L., Nakajima, H., Iwamoto, N., Nakajima-Takagi, Y., Ohashi, K., Kawakami, K., Kumagai, Y., Freeman, B. A., Yamamoto, M., and Kobayashi, M. (2011) “Nitro-fatty acids and cyclopentenone prostaglandins share strategies to activate the Keap1-Nrf2 system: a study using green fluorescent protein transgenic zebrafish.” Genes Cells 16, 46-57). The fish embryos were maintained at 28.5° C. in 0.3× Danieau's solution (19.3 mM NaCl, 0.23 mM KCl, 0.13 mM MgSO4, 0.2 mM Ca(NO3)2, 1.7 mM HEPES, pH 7.0) containing 30 μg/ml phenylthiourea (PTU) to inhibit pigmentation. Tg(gstp1:GFP) cross with AB wild-type strain fluorescence embryos were used for the experiment. Zebrafish embryos were washed, dechorionated and anaesthetized before observations, and fluorescence imaging for analysis.
Transgenic zebrafish embryos at 1 day-post-fertilization (dpf) were dechorionated and placed in Petri dishes containing different chemicals diluted in 0.3× Danieau's solution containing PTU. The chemical stock was dissolved in DMSO at 5 mM concentration.
An Olympus MVX10 Fluorescence Macroscope (Olympus, Center Valley, Pa., United States of America) equipped with a Hamamatsu C9300-221 high-speed digital CCD camera (Hamamatsu City, Japan) was used for fluorescence microscopy. Tg(gstp1:GFP) fluorescent embryos were anaesthetized in tricaine and imaged at 2 dpf. MetaMorph Basic software (Olympus, Center Valley, Pa., United States of America) was used for image acquisition and analysis.
Quantification of Nrf2 Reporter Activity by Tg(gstp1:
GFP) Fluoresence in Zebrafish Model. The fluorescence intensity of the olfactory neural epithelia was quantitated using MetaMorph Basic software. In brief, GFP expression in the olfactory regions of Tg(gstp1:GFP) embryos treated with various chemicals was measured after 24-hour treatment from 1 dpf to 2 dpf. The GFP induction was detectable by fluorescence signal at the area of the olfactory epithelia in the anterior of the head region, the intensity was measured using an area of a circle of 60 pixel diameter of the fluorescence olfactory epithelia subtracted by a background non-fluorescence area next to the zebrafish embryo. Both the left and right olfactory epithelia were measured to give an average fluorescence value. The values are an average of measurements from at least 10 embryos.

Data set [1] concerns human colon cancer cells HCT-116. Description: MTT growth inhibition, HCT-116. In kind it is cell-based. Particulars: 24 hours. Here is the method: (§1) Cell viability was determined by an MTT colorimetric assay. Briefly, human colon cancer cells HCT-116 or HT-29, were plated in 96-well microtiter plates with 3000 cells/well and allowed to attach for 24 hours at 37° C. and 5% CO2. The test compounds (in DMSO) were added to cell culture medium to desired final concentrations (final DMSO concentrations for control and treatments were 0.1%). After the cells were cultured for 24 hours, the medium was aspirated and cells were treated with 200 μL fresh medium containing 2.41 mmol/L MTT. After incubation for 3 hours at 37° C., the medium containing MTT was aspirated, 100 μL of DMSO was added to solubilize the formazan precipitate, and the plates were shaken gently for an hour at room temperature. Absorbance values were derived from the plate reading at 550 nm on a Biotek (Winooski, Vt., United States of America) microtiter plate reader. The reading reflected the number of viable cells and was expressed as a percentage of viable cells in the control. CCD-18Co cells were grown in EMEM. Both HCT-116 and HT-29 cells were cultured in McCoy's 5A medium. All of the above media were supplemented with 10% fetal bovine serum, 1% penicillin/streptomycin, and 1% glutamine, and the cells were kept in a 37° C. incubator with 95% humidity and 5% CO2.

For data set [2], the system named is human colon cancer cells HT-29. Description: MTT growth inhibition, HT-29. Particulars: 24 hours. Type of data set: cell-based. Here is the method:
as §1

Data set [3] is described as follows: Biotransformation in zebrafish embryos (cysteine conjugates, LC/MS). Particulars: 5 μM in incubation medium, 8 hpf to 24 hpf. In kind it is in vivo. Here is the method:
Fifty zebrafish embryos at the 8 hour-post-fertilization (hpf) stage were incubated at 28.5° C. in 0.3× Danieau's solution (19.3 mM NaCl, 0.23 mM KCl, 0.13 mM MgSO4, 0.2 mM Ca(NO3)2, 1.7 mM HEPES, pH 7.0) with or without 5 μM 18 and 25-27, respectively. At 24 hpf, embryos were dechorionated manually and the chorions were carefully removed one by one from the culture medium. The zebrafish embryos were harvested and kept at −80° C. till analyzed by LC/MS.
200 μL Sodium acetate buffer solution (pH 5.0) was added to 50 zebrafish embryos. Samples were homogenized for 90 s by an Omni Bead Ruptor Homogenizer (Kennesaw, Ga., United States of America). 10 μL 10% ascorbic acid and 300 μL sodium acetate buffer were added to the homogenates. The mixture was incubated in the presence of β-glucuronidase (250 U) and sulfatase (3 U) at 37° C. for 45 min, and then 600 μL MeOH with 1% acetic acid was added. The resulting mixture was vortexed for 30 s and then centrifuged at 17000 g for 10 min. The supernatant was removed and evaporated under a gentle stream of nitrogen. The residue was reconstituted in 150 μL 90% MeOH with 0.2% acetic acid (AA), and 10 μL was analyzed directly by LC/MS.
LC/MS analysis was carried out with a Thermo-Finnigan Spectra System, which consisted of an Accela high speed MS pump, an Accela refrigerated autosampler, and an LCQ Fleet ion trap mass detector (Thermo Electron, San Jose, Calif., United States of America) incorporated with an electrospray ionization (ESI) interface. A Gemini-NX C18 column (150 mm×4.6 mm i.d., 5 μm; Phenomenex, Torrance, Calif., United States of America) was used for separation at a flow rate of 0.3 mL/min. The column was eluted with 100% A (5% aqueous methanol with 0.2% formic acid) for 1 min, followed by linear increases in B (95% aqueous methanol with 0.2% formic acid) to 55% from 1 to 4 min, to 85% from 4 to 25 min, then to 100% B from 25 to 30 min, and then with 100% B from 30 to 35 min. The column was then re-equilibrated with 100% A for 5 min. The LC eluent was introduced into the ESI interface. The positive ion polarity mode was set for the ESI source with the voltage on the ESI interface maintained at approximately 4.6 kV. Nitrogen gas was used as the sheath gas and auxiliary gas. Optimized source parameters, including capillary temperature (260° C.), sheath gas flow rate (31 arbitrary units), auxiliary gas flow rate (16 units), tube lens (34 V), and capillary voltage 9 V, were tuned using authentic samples. The collision-induced dissociation (CID) was conducted with an isolation width 2 Da and normalized collision energy of 35 for MS^2. The mass range was measured from 100 to 800 m/z. Data acquisition was performed with Xcalibur version 2.0 (Thermo Electron, San Jose, Calif., United States of America).

Values joined by “and” are separate entries in the source; they are usually repeats but may differ in a detail not shown here. Equal entries are not always repeated.

Take `CCCCC/C=C/C(=O)/C=C/c1ccc(O)c(O)c1` [Compound 26]: the “Ratio/CTL, Tg(gstp1:GFP) fluorescence signal” value in the data set on Nrf2 was 6.96 and 6.96 ± 0.48. Moreover, the values for the IC50 in data set [1] and in data set [2] were 5.42 µM and 11.5 µM, respectively. The “Cysteine conjugates found in zebrafish embryos” value in data set [3] was “Three conjugates 37, 37b, and 38 were detected”.
